In patent US12522628B2, “Aryl glucoside derivative and use thereof in drug” (SHANGHAI ZHEYE BIOTECHNOLOGY CO. LTD., priority 2020, dated 2026):

Tests used:
[1] = Lipid solubility and water solubility compared with Example 5; assay type: physicochemical
[2] = Pharmacokinetic study in rats; assay type: in vivo, SD rats; conditions: 10 mg/kg, oral gavage; for bioavailability: male, SD, rat, plasma, po, read-out: Absolute Bioavailability(F %)
Experimental: • Experimental animals: SPF male SD rats; • Dosage and method of administration: 10 mg/kg, oral gavage.
Research compound: Dapagliflozin, the compound of Example 5, the compound of Example 7, the compound of Comparative Example 6; • Test method: Before administration (0), and 1, 4, 8, and 24 hours after administration, 0.2 ml of blood was collected from orbital venous plexus, anticoagulated with heparin, and plasma was collected.

[3] = Observation of defecation (loose stools) in rats during OGTT study; assay type: in vivo, SD rats; conditions: 0.012 mg/kg oral gavage, within 48 hours before and after the experiment
Experimental: (§1) Experimental process: the animals were fed a normal diet with consecutive administration for 14 days, and the glucose tolerance test was performed on day 15, blood glucose was detected before administration (−30 min), before giving glucose (0 min), and 10, 30, 60, and 120 min after giving glucose solution, and the defecation of animals was observed.

blood glucose [4] = assay: Oral glucose tolerance test (OGTT) after continuous administration in rats for 14 days; assay type: in vivo, SD rats; conditions: 0.012 mg/kg oral gavage, OGTT on day 15
Experimental: • Experimental animals: SPF male SD rats; • Compound preparation: an appropriate amount of the compounds of Example 2, Example 3, and Example 5 were weighed, and uniformly suspended with an appropriate amount of 0.5% CMC-Na solution; • Preparation of glucose solution: an appropriate amount of glucose powder was weighed and dissolved with an appropriate amount of pure water; • Dosage and method of administration: 0.012 mg/kg, oral gavage.
as §1

SGLT1 [5] = biological target: T1, SGLT1 (Homo sapiens, UniProt P13866); assay: HSGLT1 inhibitor activity experiment: 2-NBDG uptake by HEK293 cells stably expressing human SGLT1; assay type: cell-based; design: expressed in transfected cells; host or cells: HEK293; conditions: for IC50: 2-NBDG uptake, HEK293 stably expressing human SGLT1, read-out: SGLT1 Inhibitory Activity
T1 sequence (P13866 1-664): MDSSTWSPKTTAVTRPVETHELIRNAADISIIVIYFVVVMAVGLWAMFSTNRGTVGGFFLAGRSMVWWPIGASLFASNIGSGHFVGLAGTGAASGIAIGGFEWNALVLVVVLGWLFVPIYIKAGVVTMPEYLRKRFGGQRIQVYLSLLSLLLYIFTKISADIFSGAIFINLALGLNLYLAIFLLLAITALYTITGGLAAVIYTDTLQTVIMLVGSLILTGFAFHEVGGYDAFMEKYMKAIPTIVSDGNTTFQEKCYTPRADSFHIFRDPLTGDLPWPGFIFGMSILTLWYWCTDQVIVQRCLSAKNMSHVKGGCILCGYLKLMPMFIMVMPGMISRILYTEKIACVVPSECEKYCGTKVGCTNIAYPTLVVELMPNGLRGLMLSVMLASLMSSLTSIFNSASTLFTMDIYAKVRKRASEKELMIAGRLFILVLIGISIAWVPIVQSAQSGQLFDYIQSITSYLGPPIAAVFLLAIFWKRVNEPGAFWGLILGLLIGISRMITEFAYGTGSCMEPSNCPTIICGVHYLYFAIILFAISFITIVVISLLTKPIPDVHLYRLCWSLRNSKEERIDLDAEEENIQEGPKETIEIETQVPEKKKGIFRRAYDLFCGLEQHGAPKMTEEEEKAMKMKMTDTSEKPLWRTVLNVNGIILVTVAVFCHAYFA
Experimental: Inhibitory activity testing was performed with reference to a similar method described in document (Acta Pharmaceutica Sinica 2017, 52(6):897-903; Nature Protocols (2007), 2(3), 753-762; Journal of Biochemical and Biophysical Methods (2005), 64(3), 207-215; Diabetes Technology & Therapeutics (2011), 13(7), 743-775).
In this experiment, the in vitro activity assay was evaluated using the uptake of 2-NBDG (2-Deoxy-2-[(7-nitro-2,1,3-benzoxadiazol-4-yl)amino]-D-glucose, CAS NO: 186689-07-6) by human embryonic kidney epithelial cells (HEK293, stably expressing human SGLT1), and the SGLT1 inhibitory activity of the target compound was determined by measuring its half-maximal inhibitory concentration (IC50).
HEK293 cells that can stably express human SGLT1 gene were inoculated into a 96-well clear-bottom black plates containing DMEM medium. The cells were incubated at 37° C., 5% CO2in a cell incubator. The medium in the 96-well plate was aspirated, and the plate was treated with low-glucose serum-free DMEM medium, and washed once with non-specific uptake buffer and once with Na^+-dependent uptake buffer. Uptake buffer containing test compound was added to each well of cells, followed by uptake buffer containing 2-NBDG for glucose uptake, and the cell plate was incubated at 37° C., 5% CO2. The compounds were gradiently diluted. The uptake reaction was stopped by removing the culture medium, and after washing the cells with ice-cold uptake buffer, the washing solution was removed. The cells were lysed by adding NaOH, and the content of 2-NBDG in the cells was detected by a fluorescence microplate reader. The protein concentration of the lysate was measured by BCA method, the uptake of 2-NBDG was quantified by fluorescence intensity/protein content, and the obtained data were analyzed using GraphPad Prism to determine the median inhibitory concentration (IC50) of the compound to be tested.

blood glucose [6] = assay: In vivo hypoglycemic efficacy experiment combined with sitagliptin, STZ-induced type 2 diabetes mouse model; design: species or system Balb/C male mice
Experimental: Model establishment: SPF grade Balb/C male mice were used in this experiment, and the establishment of the type 2 diabetes mouse model was induced by intraperitoneal injection of streptozotocin (STZ) supplemented by high-fat and high-sugar diet.
Administration: normal group, model group, low-dose combined administration group (the compound of Example 5 0.02 mg/kg+sitagliptin 20 mg/kg), medium-dose combined administration group (the compound of Example 5 0.06 mg/kg+sitagliptin 20 mg/kg), high-dose combined administration group (the compound of Example 5 0.1 mg/kg+sitagliptin 20 mg/kg), sitagliptin group (20 mg/kg). The normal group and the model group were given the solvent by gavage.

[7] = Observation of defecation (loose stools) in mice, day 1 to day 5; assay type: in vivo
Experimental: (§2) • Experimental animals: SPF male mice; • Compound preparation: an appropriate amount of the compounds of Example 5 was weighed, and uniformly suspended with an appropriate amount of 0.5% CMC-Na solution; • Preparation of glucose solution: an appropriate amount of glucose powder was weighed and dissolved with an appropriate amount of pure water; • Administration and dosage: oral gavage; blank vehicle group, high-dose group (1.6 mg/kg), low-dose group (0.12 mg/kg).
(§3) Experimental process: • (1) The mice were fed a high-sugar diet for 6 days, and then grouped (10 mice in each group) to enter the administration stage; • (2) Example compound 5 was administered at 5:00 pm every day from day 1 to day 5, once a day, and then the animals were fed a high-sugar free diet, and the defecation of the animals was observed. • (3) On day 6, oral glucose tolerance test was performed, and glucose solution (2 g/kg) was orally administered. Blood glucose was detected before (0 min) and 10, 30, and 60 min after giving glucose solution, respectively.

rat feces suspension = assay: Intestinal microbial metabolic stability in rat feces suspension; assay type: in vitro ADME; conditions: for Remaining percentage of compound: rat feces suspension, 37 C
Experimental: Methods: The collected rat feces were processed, and the feces suspension was obtained for the determination of metabolic stability. The mixed reaction system consisting of the rat feces suspension and the compound of Example 5 was incubated at 37 C for 3 h, 6 h, 12 h and 24 h. The compound of Example 5 in the incubation system was analyzed to determine the total amount of remaining compound. Wherein, “+” represents the remaining percentage being: <50%; “++” represents the remaining percentage being: 50% to 70%; “+++” represents the remaining percentage being: 70% to 90%; […].

blood glucose [8] = assay: Oral glucose tolerance test (OGTT) after consecutive administration in mice; assay type: in vivo; conditions: oral gavage 5 days, OGTT on day 6
Experimental: as §2, §3

SGLT1 [9] = biological target: T1, SGLT1; assay: SGLT1 Inhibitor Activity Experiment 1; assay type: cell-based
Experimental: The inhibitory activity of SGLT1 was tested with reference to the method described in document (Journal of Medicinal Chemistry 2017, 60, 710-721, Discovery of LX2761, a Sodium-Dependent Glucose Cotransporter 1 (SGLT1) Inhibitor Restricted to the Intestinal Lumen, for the Treatment of Diabetes).

CS[C@H]1O[C@@H](c2ccc(C)c(Cc3ccc(CCCC(=O)NCCN(C)Cc4cn(C5CC5)nn4)cc3)c2)[C@H](O)[C@@H](O)[C@@H]1O
lipid solubility relative to Example 5 [1]: better lipid solubility | water solubility relative to Example 5 [1]: better lipid solubility and water solubility

CCOc1ccc(Cc2cc([C@@H]3O[C@H](CO)[C@@H](O)[C@H](O)[C@H]3O)ccc2Cl)cc1 [Dapagliflozin, reference compound]
absorption in vivo after oral administration (in words) [2]: absorbed into the blood | bioavailability [2]: 73%

CS[C@H]1O[C@@H](c2ccc(C)c(Cc3ccc(CCCC(=O)NCCN4CCN(C)CC4)cc3)c2)[C@H](O)[C@@H](O)[C@@H]1O [Example 2]
loose stools in experimental animals [3]: no loose stools were observed | blood sugar level of rats in OGTT (blood glucose [4]): significantly reduce the blood sugar level | activity of inhibiting SGLT1 (in words) (SGLT1 [5]): significant activity of inhibiting SGLT1 | IC50 (SGLT1 [5]): 0.97 nM

CS[C@H]1O[C@@H](c2ccc(C)c(Cc3ccc(CCCC(=O)NCCN4CCCCC4)cc3)c2)[C@H](O)[C@@H](O)[C@@H]1O [Example 3]
loose stools in experimental animals [3]: no loose stools were observed | blood sugar level of rats in OGTT (blood glucose [4]): significantly reduce the blood sugar level | activity of inhibiting SGLT1 (in words) (SGLT1 [5]): significant activity of inhibiting SGLT1 | IC50 (SGLT1 [5]): 0.83 nM

CS[C@H]1O[C@@H](c2ccc(C)c(Cc3ccc(CCCC(=O)NCCN(C)Cc4ccccc4)cc3)c2)[C@H](O)[C@@H](O)[C@@H]1O [Example 4]
activity of inhibiting SGLT1 (in words) (SGLT1 [5]): significant activity of inhibiting SGLT1 | IC50 (SGLT1 [5]): 1.01 nM

C#CCN(C)CCNC(=O)CCCc1ccc(Cc2cc([C@@H]3O[C@H](SC)[C@@H](O)[C@H](O)[C@H]3O)ccc2C)cc1 [Example 5]
loose stools in experimental animals [3]: no loose stools were observed | absorption in vivo after oral administration (in words) [2]: almost no absorption in vivo | detection in vivo after oral administration (in words) [2]: hardly detected in vivo | bioavailability [2]: < 1.5% | blood sugar level of rats in OGTT (blood glucose [4]): significantly reduce the blood sugar level | dose-effect relationship of blood glucose reduction (blood glucose [6]; Example 5 0.02, 0.06, 0.1 mg/kg combined with sitagliptin 20 mg/kg): there is a dose-effect relationship | blood glucose level of diabetic model animals (blood glucose [6]; Example 5 0.02, 0.06 or 0.1 mg/kg combined with sitagliptin 20 mg/kg): significantly reduce the blood glucose level | number of animals with loose stools ([7]; high dose group (1.6 mg/kg), day 1): 1 animal | loose stools (in words) ([7]; high dose group (1.6 mg/kg), day 2 to day 5): did not have loose stools | Statistics of loose stools in animals ([7]; high-dose group (1.6 mg/kg), Day 1, animals with loose stool/animals in group): 1/10 | Statistics of loose stools in animals ([7]; high-dose group (1.6 mg/kg), Day 2): 0/10 | Statistics of loose stools in animals ([7]; high-dose group (1.6 mg/kg), Day 3): 0/10 | Statistics of loose stools in animals ([7]; high-dose group (1.6 mg/kg), Day 4): 0/10 | Statistics of loose stools in animals ([7]; high-dose group (1.6 mg/kg), Day 5): 0/10 | Statistics of loose stools in animals ([7]; low-dose group (0.12 mg/kg), Day 1): 0/10 | Statistics of loose stools in animals ([7]; low-dose group (0.12 mg/kg), Day 2): 0/10 | Statistics of loose stools in animals ([7]; low-dose group (0.12 mg/kg), Day 3): 0/10 | Statistics of loose stools in animals ([7]; low-dose group (0.12 mg/kg), Day 4): 0/10 | Statistics of loose stools in animals ([7]; low-dose group (0.12 mg/kg), Day 5): 0/10 | loose stools (in words) ([7]; low-dose group (0.12 mg/kg), continuous administration for 5 days): did not have loose stools | remaining compound (rat feces suspension; incubated with microorganisms in rat feces for about 24 hours): > 70% | Remaining percentage of compound (rat feces suspension; incubation 12 h): +++ (the remaining percentage being: 70% to 90%) | Remaining percentage of compound (rat feces suspension; incubation 24 h): +++ (the remaining percentage being: 70% to 90%) | blood glucose level of mice in OGTT (blood glucose [8]; high-dose group (1.6 mg/kg)): significantly reduce the blood glucose level | blood glucose level of mice in OGTT (blood glucose [8]; low-dose group (0.12 mg/kg)): significantly reduce the blood glucose level | activity of inhibiting SGLT1 (in words) (SGLT1 [5]): significant activity of inhibiting SGLT1 | IC50 (SGLT1 [5]): 0.37 nM | IC50 (SGLT1 [9]): < 50 nM

C#CCN(C)CCNC(=O)CCOc1ccc(Cc2cc([C@@H]3O[C@H](SC)[C@@H](O)[C@H](O)[C@H]3O)ccc2C)cc1 [Example 6]
IC50 (SGLT1 [9]): < 50 nM

C#CCN(C)CCNC(=O)CCOCc1ccc(Cc2cc([C@@H]3O[C@H](SC)[C@@H](O)[C@H](O)[C@H]3O)ccc2C)cc1 [Example 7]
absorption in vivo after oral administration (in words) [2]: almost no absorption in vivo | detection in vivo after oral administration (in words) [2]: hardly detected in vivo | bioavailability [2]: < 1.5% | IC50 (SGLT1 [9]): < 50 nM

C#CCN(C)CCNC(=O)C/C=C/c1ccc(Cc2cc([C@@H]3O[C@H](SC)[C@@H](O)[C@H](O)[C@H]3O)ccc2C)cc1 [Example 8]
IC50 (SGLT1 [9]): < 50 nM
